Consider 20 compounds from US6632817B2, “Fluoromethoximino compounds” (priority 1997, dated 2003).

The subject of one series is Venturia inaequalis. As to the kind of experiment: Venturia test (apple)/protective. In kind it is in vivo. The note with it: Venturia inaequalis, 288 h, protective, application rate 10 g/ha, evaluation 12 days after inoculation, read-out: Efficacy in %. The protocol:
Venturia Test (Apple)/Protective
(§1) Solvent: 47 parts by weight of acetone
(§2) Emulsifier: 3 parts by weight of alkylaryl polyglycol ether
(§3) To produce a suitable preparation of active compound, 1 part by weight of active compound is mixed with the stated amounts of solvent and emulsifier, and the concentrate is diluted with water to the desired concentration.
To test for protective activity, young plants are sprayed with the preparation of active compound at the stated application rate. After the spray coating has dried on, the plants are inoculated with an aqueous conidia suspension of the causative organism of apple scab Venturia inaequalis and then remain in an incubation cabin at approximately 20° C. and 100% relative atmospheric humidity for 1 day.
The plants are then placed in a greenhouse at approximately 21° C. and a relative atmospheric humidity of approximately 90%.
Evaluation is carried out 12 days after the inoculation. 0% means an efficacy which corresponds to that of the control, whereas an efficacy of 100% means that no infection is observed.

Another series concerns Puccinia recondita. The series can be described thus: Puccinia test (wheat)/protective. In kind it is in vivo. The note with it: Puccinia recondita, 240 h, protective, application rate 250 g/ha, evaluation 10 days after inoculation, read-out: Efficacy in %. The protocol: Puccinia Test (Wheat)/Protective
(§4) Solvent: 25 parts by weight of N,N-dimethylacetamide
(§5) Emulsifier: 0.6 part by weight of alkylaryl polyglycol ether
as §3
To test for protective activity, young plants are sprayed with the preparation of active compound at the stated application rate. After the spray coating has dried on, the plants are sprayed with a conidia suspension of Puccinia recondita. The plants remain in an incubation cabin at 20° C. and 100% relative atmospheric humidity for 48 hours.
The plants are then placed in a greenhouse at a temperature of approximately 20° C. and a relative atmospheric humidity of 80% to promote the development of rust pustules.
(§6) Evaluation is carried out 10 days after the inoculation. 0% means an efficacy which corresponds to that of the control, whereas an efficacy of 100% means that no infection is observed.

The test system of the next series is Plasmopara viticola. As to the kind of experiment: Plasmopara test (grapevine)/protective. Type of series: in vivo. As to conditions: Plasmopara viticola, 144 h, protective, application rate 100 g/ha, evaluation 6 days after inoculation, read-out: Efficacy in %. How it is done: Plasmopara Test (Grapevine)/Protective
as §1, §2, §3
To test for protective activity, young plants are sprayed with the preparation of active compound at the stated application rate. After the spray coating has dried on, the plants are inoculated with an aqueous spore suspension of Plasmopara viticola and then remain in an incubation cabin at approximately 20° C. and 100% relative atmospheric humidity for 1 day. The plants are subsequently placed in a greenhouse at approximately 21° C. and approximately 90% relative atmospheric humidity for 5 days. The plants are then moistened and placed in an incubation cabin for 1 day.
Evaluation is carried out 6 days after the inoculation. 0% means an efficacy which corresponds to that of the control, whereas an efficacy of 100% means that no infection is observed.

Another series deals with Puccinia recondite. The series can be described thus: Puccinia test (wheat)/curative. Type of series: in vivo. The note with it: curative, application rate 250 g/ha, evaluation 10 days after inoculation. How it is done:
Puccinia Test (Wheat)/Curative
as §4, §5, §3
To test for curative activity, young plants are sprayed with a conidia suspension of Puccinia recondite. The plants remain in an incubation cabin at 20° C. and 100% relative atmospheric humidity for 48 hours. The plants are subsequently sprayed with the preparation of active compound at the stated application rate.
The plants are placed in a greenhouse at a temperature of approximately 20° C. and a relative atmospheric humidity of approximately 80% to promote the development of rust pustules.
as §6

Series [1] in a line: logP determination by HPLC (EEC Directive 79/831 Annex V. A8). In kind it is physicochemical. The note with it: HPLC gradient method, acetonitrile/0.1% aqueous phosphoric acid. The protocol:
The logP values are determined in accordance with EEC Directive 79/831 Annex V. A8 by HPLC (gradient method, acetonitrile/0.1% aqueous phosphoric acid).

Regarding `COC(=O)C(=NOCF)c1ccccc1Oc1ncnc(Oc2ccccc2Cl)c1F` [Example 1, methyl {2-[6-(2-chlorophenoxy)-5-fluoropyrimidin-4-yloxy]-phenyl}-fluoromethoxyimino-acetate], the melting point (commonly the temperature of the solid-liquid transition) lay in the range of 153 to 155 °C. Moreover, the pest or weed control at 10 g/ha in the series with Venturia inaequalis was no less than 99%. Further, the pest or weed control at 250 g/ha with Puccinia recondita was no less than 80%. The pest or weed control at 100 g/ha in the series on Plasmopara viticola is no less than 98%.
Compound `CNC(=O)C(=NOCF)c1ccccc1Oc1ncnc(Oc2ccccc2Cl)c1F` [Example 2, 2-{2-[6-(2-chlorophenoxy)-5-fluoropyrimidin-4-yloxy]-phenyl}-2-fluoromethoxyimino-N-methylacetamide] came in with a melting point of 128 to 129 °C. Besides, the pest or weed control at 10 g/ha with Venturia inaequalis is no less than 99%. The pest or weed control at 250 g/ha in the series with Puccinia recondita is no less than 80%. Also, the pest or weed control at 100 g/ha with Plasmopara viticola is no less than 98%. In the series with Puccinia recondite, this compound registered an Efficacy in % of 100%.
Consider `CNC(=O)/C(=N\OCF)c1ccccc1Oc1ncnc(Oc2cccc(Cl)c2C)c1F` [Example 4], for which the pest or weed control at 10 g/ha with Venturia inaequalis was no less than 99%. Also, the chromatographic logP (usually lipophilicity estimated from chromatographic retention) in series [1] was determined as 3.5. For the same compound, in the series with Plasmopara viticola, the pest or weed control at 100 g/ha is no less than 98%. This compound also showed an Efficacy in % in the series with Puccinia recondite of 100%.
Consider `CNC(=O)/C(=N\OCF)c1ccccc1Oc1ncnc(Oc2ccccc2OC(F)F)c1F` [Example 6], for which, in the series with Venturia inaequalis, the pest or weed control at 10 g/ha is no less than 99%. Moreover, in series [1], the chromatographic logP amounted to 2.9. For the same compound, the pest or weed control at 250 g/ha in the series with Puccinia recondita is no less than 80%. Besides, the pest or weed control at 100 g/ha with Plasmopara viticola is no less than 98%. The compound also had an Efficacy in % in the series on Puccinia recondite of 100%.
As for `CNC(=O)/C(=N\OCF)c1ccccc1Oc1ncnc(Oc2cccc(C)c2C)c1F` [Example 9], the pest or weed control at 10 g/ha in the series on Venturia inaequalis is no less than 99%. The compound also gave a chromatographic logP in series [1] of 3.3. Besides, in the series on Puccinia recondita, the pest or weed control at 250 g/ha was no less than 80%. Further, the pest or weed control at 100 g/ha in the series on Plasmopara viticola was no less than 98%.
On to `CNC(=O)/C(=N\OCF)c1ccccc1Oc1ncnc(Oc2ccccc2C#N)c1F` [Example 10], for which the chromatographic logP in series [1] was determined as 2.8. Also, in the series on Puccinia recondita, the pest or weed control at 250 g/ha is no less than 80%. In the series on Plasmopara viticola, the pest or weed control at 100 g/ha was no less than 98%. Moreover, the Efficacy in % with Puccinia recondite is on record as 100%.
As for `CNC(=O)/C(=N\OCF)c1ccccc1Oc1ncnc(Oc2ccccc2C)c1F` [Example 11], the pest or weed control at 10 g/ha in the series with Venturia inaequalis is no less than 99%. This compound gave a chromatographic logP in series [1] of 3. In the series on Puccinia recondita, the pest or weed control at 250 g/ha was no less than 80%. Further, in the series with Plasmopara viticola, the pest or weed control at 100 g/ha was no less than 98%.
The corresponding values for `CNC(=O)/C(=N\OCF)c1ccccc1Oc1nc(-c2ccc(C(F)(F)F)cc2)ns1` [Example 19] are no less than 99%, 3.7, no less than 80% and no less than 98%.
As to `CNC(=O)/C(=N\OCF)c1ccccc1Oc1nc(-c2ccc(OC(F)(F)F)cc2)ns1` [Example 22], the pest or weed control at 10 g/ha in the series on Venturia inaequalis is no less than 99%. The compound further showed a chromatographic logP in series [1] of 3.8. Also, in the series on Puccinia recondita, the pest or weed control at 250 g/ha is no less than 80%. Besides, the pest or weed control at 100 g/ha in the series on Plasmopara viticola is no less than 98%. This compound also yielded an Efficacy in % with Puccinia recondite of 100%.
On to `CNC(=O)/C(=N\OCF)c1ccccc1Oc1nc(-c2cccc(OC(F)(F)F)c2)ns1` [Example 23], for which the pest or weed control at 10 g/ha in the series on Venturia inaequalis is no less than 99%. For the same compound, the chromatographic logP in series [1] was 3.8. Moreover, the pest or weed control at 100 g/ha with Plasmopara viticola is no less than 98%.
Take `CNC(=O)/C(=N\OCF)c1ccccc1Oc1nc(-c2ccc(OC(F)F)cc2)ns1` [Example 26]: the pest or weed control at 10 g/ha in the series with Venturia inaequalis is no less than 99%. Moreover, the chromatographic logP in series [1] stood at 3.2. Besides, the pest or weed control at 250 g/ha in the series on Puccinia recondita is no less than 80%. Also, the pest or weed control at 100 g/ha in the series on Plasmopara viticola was no less than 98%.
Take `CNC(=O)/C(=N\OCF)c1ccccc1Oc1nc(-c2cccc(C(F)(F)F)c2)ns1` [Example 28]: the pest or weed control at 10 g/ha in the series on Venturia inaequalis is no less than 99%. In series [1], this compound came in with a chromatographic logP of 3.6. In the series with Puccinia recondita, the pest or weed control at 250 g/ha is no less than 80%. In addition, in the series on Plasmopara viticola, the pest or weed control at 100 g/ha was no less than 98%. This compound also gave an Efficacy in % in the series with Puccinia recondite of 100%.
Take `CNC(=O)C(=NOCF)c1ccccc1Oc1ncnc(Oc2ccccc2Cl)c1F` [drawing 98]: the Efficacy in % in the series on Puccinia recondite amounted to 100%.
Same read-out and setting: the value for `CNC(=O)/C(=N\OCF)c1ccccc1Oc1ncnc(Oc2cccc(Cl)c2C)c1F` [drawing 99] was 100%; that for `CNC(=O)/C(=N\OCF)c1ccccc1Oc1ncnc(Oc2ccccc2OC(F)F)c1F` [drawing 100] was 100%.
On the same count and under the same terms, with `CNC(=O)C(NOCF)c1ccccc1Oc1ncnc(Oc2ccccc2[N+](=O)[O-])c1F` (centres unmarked) [drawing 101] the figure was 100%.
Same read-out and setting: with `CNC(=O)/C(=N\OCF)c1ccccc1Oc1ncnc(Oc2ccccc2C#N)c1F` [drawing 102] the figure was 100%; with `CNC(=O)/C(=N\OCF)c1ccccc1Oc1nc(-c2cccc(C(F)(F)F)c2)ns1` [drawing 103], 100%; with `CNC(=O)/C(=N\OCF)c1ccccc1Oc1nc(-c2ccc(OC(F)(F)F)cc2)ns1` [drawing 104], 100%.
In the series with Puccinia recondite, `CNC(=O)/C(=N\OCF)c1ccccc1Oc1ncnc(Oc2ccccc2Cl)c1F` [drawing 105] registered an Efficacy in % of 100%.
